{"source": "the OligoGym collection", "note": "HELM strings list units from the 5' end as sugar, base in round brackets, then linkage (d deoxyribose, r ribose, m 2'-O-methyl, p phosphodiester). Strings are as the collection lists them; they lack the last nucleoside at the 3' end of the tested compound. [moe] = 2'-O-(2-methoxyethyl) (MOE); [sp] = phosphorothioate linkage; [m5C] = 5-methylcytosine", "data": [{"target": "C9ORF72", "assay": "mouse, dose not given", "conditions": "ASO", "units": {"3 h FOB score": "score 0-7"}, "values": [{"substance": "RNA1{[moe](T)[sp].[moe](G)p.[moe](G)p.[moe](T)p.d(T)[sp].d(A)[sp].d(A)[sp].d(T)[sp].d([m5C])[sp].d(T)[sp].d(T)[sp].d(T)[sp].d(A)[sp].d(T)[sp].[moe]([m5C])p.[moe](A)p.[moe](G)p.[moe](G)[sp].[moe](T)}$$$$ (last 3' nucleoside missing)", "3 h FOB score": 1}, {"substance": "RNA1{[moe](T)[sp].[moe](G)p.[moe](G)p.d(T)[sp].d(T)[sp].d(A)[sp].d(A)[sp].d(T)[sp].d([m5C])[sp].d(T)[sp].d(T)[sp].d(T)[sp].d(A)[sp].[moe](T)p.[moe]([m5C])p.[moe](A)p.[moe](G)p.[moe](G)[sp].[moe](T)}$$$$ (last 3' nucleoside missing)", "3 h FOB score": 0.25}, {"substance": "RNA1{[moe](T)[sp].[moe]([m5C])p.[moe](T)[sp].d(G)[sp].d(T)[sp].d([m5C])[sp].d(T)[sp].d(T)[sp].d(T)[sp].d(G)[sp].d(G)[sp].[moe](A)p.[moe](G)p.[moe]([m5C])p.[moe]([m5C])p.[moe]([m5C])[sp].[moe](A)}$$$$ (last 3' nucleoside missing)", "3 h FOB score": 4}, {"substance": "RNA1{[moe](T)[sp].[moe]([m5C])p.[moe](T)p.[moe](G)[sp].d(T)[sp].d([m5C])[sp].d(T)[sp].d(T)[sp].d(T)[sp].d(G)[sp].d(G)[sp].d(A)[sp].[moe](G)p.[moe]([m5C])p.[moe]([m5C])p.[moe]([m5C])[sp].[moe](A)}$$$$ (last 3' nucleoside missing)", "3 h FOB score": 5.25}, {"substance": "RNA1{[moe](T)[sp].[moe]([m5C])p.[moe](T)p.[moe](G)p.[moe](T)p.[moe]([m5C])[sp].d(T)[sp].d(T)[sp].d(T)[sp].d(G)[sp].d(G)[sp].d(A)[sp].d(G)[sp].d([m5C])[sp].[moe]([m5C])p.[moe]([m5C])[sp].[moe](A)}$$$$ (last 3' nucleoside missing)", "3 h FOB score": 5.5}, {"substance": "RNA1{[moe](T)[sp].[moe]([m5C])p.[moe](T)p.[moe](G)p.[moe](T)p.[moe]([m5C])p.[moe](T)[sp].d(T)[sp].d(T)[sp].d(G)[sp].d(G)[sp].d(A)[sp].d(G)[sp].d([m5C])[sp].d([m5C])[sp].[moe]([m5C])[sp].[moe](A)}$$$$ (last 3' nucleoside missing)", "3 h FOB score": 6.25}, {"substance": "RNA1{[moe](T)[sp].[moe]([m5C])p.[moe](T)p.[moe](G)p.[moe](T)p.[moe]([m5C])p.[moe](T)p.d(T)[sp].d(T)[sp].d(G)[sp].d(G)[sp].d(A)[sp].d(G)[sp].d([m5C])[sp].d([m5C])[sp].d([m5C])[sp].d(A)[sp].[moe](A)[sp].[moe](A)}$$$$ (last 3' nucleoside missing)", "3 h FOB score": 2}, {"substance": "RNA1{[moe](T)[sp].[moe]([m5C])p.[moe](T)p.[moe](G)p.[moe](T)p.[moe]([m5C])p.d(T)[sp].d(T)[sp].d(T)[sp].d(G)[sp].d(G)[sp].d(A)[sp].d(G)[sp].d([m5C])[sp].d([m5C])[sp].d([m5C])[sp].[moe](A)p.[moe](A)[sp].[moe](A)}$$$$ (last 3' nucleoside missing)", "3 h FOB score": 4.25}, {"substance": "RNA1{[moe](T)[sp].[moe]([m5C])p.[moe](T)p.[moe](G)p.d(T)[sp].d([m5C])[sp].d(T)[sp].d(T)[sp].d(T)[sp].d(G)[sp].d(G)[sp].d(A)[sp].d(G)[sp].d([m5C])[sp].[moe]([m5C])p.[moe]([m5C])p.[moe](A)p.[moe](A)[sp].[moe](A)}$$$$ (last 3' nucleoside missing)", "3 h FOB score": 6.75}, {"substance": "RNA1{[moe](T)[sp].[moe]([m5C])p.[moe](T)p.d(G)[sp].d(T)[sp].d([m5C])[sp].d(T)[sp].d(T)[sp].d(T)[sp].d(G)[sp].d(G)[sp].d(A)[sp].d(G)[sp].[moe]([m5C])p.[moe]([m5C])p.[moe]([m5C])p.[moe](A)p.[moe](A)[sp].[moe](A)}$$$$ (last 3' nucleoside missing)", "3 h FOB score": 6.75}, {"substance": "RNA1{[moe]([m5C])[sp].[moe](A)p.[moe](G)p.[moe](G)[sp].d([m5C])[sp].d(T)[sp].d(G)[sp].d([m5C])[sp].d(G)[sp].d(G)[sp].d(T)[sp].d(T)[sp].[moe](G)p.[moe](T)p.[moe](T)p.[moe](T)[sp].[moe]([m5C])}$$$$ (last 3' nucleoside missing)", "3 h FOB score": 3.5}, {"substance": "RNA1{[moe]([m5C])[sp].[moe](A)p.[moe](G)p.[moe](G)p.[moe]([m5C])p.[moe](T)[sp].d(G)[sp].d([m5C])[sp].d(G)[sp].d(G)[sp].d(T)[sp].d(T)[sp].d(G)[sp].d(T)[sp].[moe](T)p.[moe](T)[sp].[moe]([m5C])}$$$$ (last 3' nucleoside missing)", "3 h FOB score": 4.5}, {"substance": "RNA1{[moe]([m5C])[sp].[moe](A)p.[moe](G)p.[moe](G)p.[moe]([m5C])p.[moe](T)p.d(G)[sp].d([m5C])[sp].d(G)[sp].d(G)[sp].d(T)[sp].d(T)[sp].d(G)[sp].d(T)[sp].d(T)[sp].[moe](T)p.[moe]([m5C])[sp].[moe]([m5C])}$$$$ (last 3' nucleoside missing)", "3 h FOB score": 6}, {"substance": "RNA1{[moe]([m5C])[sp].[moe](A)p.[moe](G)p.[moe](G)p.[moe]([m5C])p.[moe](T)p.d(G)[sp].d([m5C])[sp].d(G)[sp].d(G)[sp].d(T)[sp].d(T)[sp].d(G)[sp].d(T)[sp].d(T)[sp].d(T)[sp].[moe]([m5C])p.[moe]([m5C])[sp].[moe]([m5C])}$$$$ (last 3' nucleoside missing)", "3 h FOB score": 2}, {"substance": "RNA1{[moe]([m5C])[sp].[moe](A)p.[moe](G)p.[moe](G)p.[moe]([m5C])p.d(T)[sp].d(G)[sp].d([m5C])[sp].d(G)[sp].d(G)[sp].d(T)[sp].d(T)[sp].d(G)[sp].d(T)[sp].[moe](T)p.[moe](T)p.[moe]([m5C])[sp].[moe]([m5C])}$$$$ (last 3' nucleoside missing)", "3 h FOB score": 5}, {"substance": "RNA1{[moe]([m5C])[sp].[moe](A)p.[moe](G)p.[moe](G)p.d([m5C])[sp].d(T)[sp].d(G)[sp].d([m5C])[sp].d(G)[sp].d(G)[sp].d(T)[sp].d(T)[sp].d(G)[sp].[moe](T)p.[moe](T)p.[moe](T)p.[moe]([m5C])[sp].[moe]([m5C])}$$$$ (last 3' nucleoside missing)", "3 h FOB score": 4}, {"substance": "RNA1{[moe]([m5C])[sp].[moe](A)p.[moe](G)p.[moe](G)p.d([m5C])[sp].d(T)[sp].d(G)[sp].d([m5C])[sp].d(G)[sp].d(G)[sp].d(T)[sp].d(T)[sp].d(G)[sp].d(T)[sp].[moe](T)p.[moe](T)p.[moe]([m5C])p.[moe]([m5C])[sp].[moe]([m5C])}$$$$ (last 3' nucleoside missing)", "3 h FOB score": 4.75}, {"substance": "RNA1{[moe]([m5C])[sp].[moe](G)p.[moe](G)p.[moe]([m5C])[sp].d([m5C])[sp].d([m5C])[sp].d([m5C])[sp].d(T)[sp].d(A)[sp].d(G)[sp].d([m5C])[sp].d(G)[sp].[moe]([m5C])p.[moe](G)p.[moe]([m5C])p.[moe](G)[sp].[moe](A)}$$$$ (last 3' nucleoside missing)", "3 h FOB score": 7}, {"substance": "RNA1{[moe]([m5C])[sp].[moe](G)p.[moe](G)p.[moe]([m5C])p.[moe]([m5C])p.[moe]([m5C])[sp].d([m5C])[sp].d(T)[sp].d(A)[sp].d(G)[sp].d([m5C])[sp].d(G)[sp].d([m5C])[sp].d(G)[sp].[moe]([m5C])p.[moe](G)[sp].[moe](A)}$$$$ (last 3' nucleoside missing)", "3 h FOB score": 4.5}, {"substance": "RNA1{[moe]([m5C])[sp].[moe](G)p.[moe](G)p.[moe]([m5C])p.[moe]([m5C])p.[moe]([m5C])p.d([m5C])[sp].d(T)[sp].d(A)[sp].d(G)[sp].d([m5C])[sp].d(G)[sp].d([m5C])[sp].d(G)[sp].d([m5C])[sp].[moe](G)p.[moe](A)[sp].[moe]([m5C])}$$$$ (last 3' nucleoside missing)", "3 h FOB score": 3}, {"substance": "RNA1{[moe]([m5C])[sp].[moe](G)p.[moe](G)p.[moe]([m5C])p.[moe]([m5C])p.[moe]([m5C])p.d([m5C])[sp].d(T)[sp].d(A)[sp].d(G)[sp].d([m5C])[sp].d(G)[sp].d([m5C])[sp].d(G)[sp].d([m5C])[sp].d(G)[sp].[moe](A)p.[moe]([m5C])[sp].[moe](T)}$$$$ (last 3' nucleoside missing)", "3 h FOB score": 1.25}, {"substance": "RNA1{[moe]([m5C])[sp].[moe](G)p.[moe](G)p.[moe]([m5C])p.[moe]([m5C])p.d([m5C])[sp].d([m5C])[sp].d(T)[sp].d(A)[sp].d(G)[sp].d([m5C])[sp].d(G)[sp].d([m5C])[sp].d(G)[sp].[moe]([m5C])p.[moe](G)p.[moe](A)[sp].[moe]([m5C])}$$$$ (last 3' nucleoside missing)", "3 h FOB score": 4}, {"substance": "RNA1{[moe]([m5C])[sp].[moe](G)p.[moe](G)p.[moe]([m5C])p.d([m5C])[sp].d([m5C])[sp].d([m5C])[sp].d(T)[sp].d(A)[sp].d(G)[sp].d([m5C])[sp].d(G)[sp].d([m5C])[sp].[moe](G)p.[moe]([m5C])p.[moe](G)p.[moe](A)[sp].[moe]([m5C])}$$$$ (last 3' nucleoside missing)", "3 h FOB score": 5.25}, {"substance": "RNA1{[moe]([m5C])[sp].[moe](G)p.[moe](G)p.[moe]([m5C])p.d([m5C])[sp].d([m5C])[sp].d([m5C])[sp].d(T)[sp].d(A)[sp].d(G)[sp].d([m5C])[sp].d(G)[sp].d([m5C])[sp].d(G)[sp].[moe]([m5C])p.[moe](G)p.[moe](A)p.[moe]([m5C])[sp].[moe](T)}$$$$ (last 3' nucleoside missing)", "3 h FOB score": 1.75}, {"substance": "RNA1{[moe]([m5C])[sp].[moe](T)p.[moe](A)p.[moe](G)[sp].d([m5C])[sp].d(G)[sp].d([m5C])[sp].d(G)[sp].d([m5C])[sp].d(G)[sp].d(A)[sp].d([m5C])[sp].[moe](T)p.[moe]([m5C])p.[moe]([m5C])p.[moe](T)[sp].[moe](G)}$$$$ (last 3' nucleoside missing)", "3 h FOB score": 3.25}, {"substance": "RNA1{[moe]([m5C])[sp].[moe](T)p.[moe](G)p.[moe](G)p.[moe](T)p.[moe](T)p.[moe](A)p.d(A)[sp].d(T)[sp].d([m5C])[sp].d(T)[sp].d(T)[sp].d(T)[sp].d(A)[sp].d(T)[sp].d([m5C])[sp].d(A)[sp].[moe](G)[sp].[moe](G)}$$$$ (last 3' nucleoside missing)", "3 h FOB score": 2.25}]}]}
